Assay results: patent US10556907B2 (AbbVie Inc., priority 2015, dated 2020)
Counter-ions that a name gives are not always drawn.

Legend:
Test in all cases: Method 1: intracellular Ca2+ release (FLIPR, Calcium 5) in recombinant CHO-K1 cells
Type in all cases: cell-based
human S1PR1 receptor = target: T1, human S1PR1 receptor (Homo sapiens, UniProt P21453); conditions: (1): determined with method 1; read-out: S1P1 EC50
T1 construct: host or cells: CHO-K1
Procedure, shortened: (§1)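 Agonist EC50 values come from nonlinear fits of FLIPR Ca2+ fluorescence, normalized to the phospho-fingolimod reference curve. Recombinant CHO-K1 (receptor plus Gq/i5, aequorin) dye-loaded 1 h at 37° C in pH 7.4 Hepes/probenecid/BSA buffer. Antagonist mode: 10 min preincubation before phospho-fingolimod at EC80.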

human S1PR4 receptor = target: T2, human S1PR4 receptor (Homo sapiens, UniProt O95977); conditions: (1): determined with method 1; read-out: S1P4 EC50
T2 construct: host or cells: CHO-K1
T2 sequence (O95977 1-384): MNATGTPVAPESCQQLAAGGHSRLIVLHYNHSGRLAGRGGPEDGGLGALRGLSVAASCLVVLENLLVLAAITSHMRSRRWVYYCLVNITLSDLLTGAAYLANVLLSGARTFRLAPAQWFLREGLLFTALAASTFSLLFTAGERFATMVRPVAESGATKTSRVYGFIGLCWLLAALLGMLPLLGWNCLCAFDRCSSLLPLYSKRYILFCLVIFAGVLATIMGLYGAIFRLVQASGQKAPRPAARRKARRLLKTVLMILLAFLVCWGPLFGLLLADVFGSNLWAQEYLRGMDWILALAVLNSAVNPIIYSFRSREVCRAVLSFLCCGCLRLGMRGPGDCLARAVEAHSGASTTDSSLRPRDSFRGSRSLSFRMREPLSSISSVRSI
Procedure, shortened: as §1

human S1PR5 receptor = target: T3, human S1PR5 receptor (Homo sapiens, UniProt Q9H228); conditions: agonist potency, determined with method 1 (symbols A-D); read-out: S1P5 EC50 range
T3 construct: host or cells: CHO-K1
T3 sequence (Q9H228 whole entry): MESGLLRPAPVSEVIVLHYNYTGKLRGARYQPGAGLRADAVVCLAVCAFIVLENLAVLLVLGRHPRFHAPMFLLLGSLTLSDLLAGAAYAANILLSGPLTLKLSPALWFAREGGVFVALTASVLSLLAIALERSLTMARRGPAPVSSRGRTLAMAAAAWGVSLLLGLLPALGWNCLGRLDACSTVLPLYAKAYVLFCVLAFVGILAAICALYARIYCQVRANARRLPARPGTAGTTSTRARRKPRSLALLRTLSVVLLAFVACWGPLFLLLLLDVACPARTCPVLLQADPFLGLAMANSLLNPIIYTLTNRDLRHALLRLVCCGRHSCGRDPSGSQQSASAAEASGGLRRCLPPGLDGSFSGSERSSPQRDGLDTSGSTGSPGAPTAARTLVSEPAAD
Procedure, shortened: as §1

T1 sequence (P21453 whole entry): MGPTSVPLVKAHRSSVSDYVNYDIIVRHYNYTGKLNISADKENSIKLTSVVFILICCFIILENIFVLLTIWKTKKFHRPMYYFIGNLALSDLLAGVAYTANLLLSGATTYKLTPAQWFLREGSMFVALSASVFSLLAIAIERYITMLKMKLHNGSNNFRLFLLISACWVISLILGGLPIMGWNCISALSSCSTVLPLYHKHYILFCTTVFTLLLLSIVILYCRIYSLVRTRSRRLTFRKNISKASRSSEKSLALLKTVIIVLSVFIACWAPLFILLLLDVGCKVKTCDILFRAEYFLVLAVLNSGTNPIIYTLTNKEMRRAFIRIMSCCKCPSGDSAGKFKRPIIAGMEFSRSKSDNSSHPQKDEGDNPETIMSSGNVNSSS

Row | Compound | EC50 (human S1PR1 receptor) | EC50 (human S1PR4 receptor) | EC50 (human S1PR5 receptor)
1 | Cc1cc(-c2ncc3c(n2)CCN(CC(C)CC(=O)O)C3)ccc1OCc1ccc(C(C)C)cc1 (stereo not drawn) [Compound 310, 4-[2-[4-[(4-isopropylphenyl)methoxy]-3-methyl-phenyl]-7,8-dihydro-5H-pyrido[4,3-d]pyrimidin-6-yl]-3-methyl-butanoic acid 2,2,2-trifluoroacetic acid salt] | > 1 µM | > 1 µM | 0.1 to 1 µM
2 | Cc1ccc(C)c(COc2ccc(-c3ncc4c(n3)CCN(CC(C)CC(=O)O)C4)cc2C)c1 (stereo not drawn) [Compound 311, 4-[2-[4-[(2,5-dimethylphenyl)methoxy]-3-methyl-phenyl]-7,8-dihydro-5H-pyrido[4,3-d]pyrimidin-6-yl]-3-methyl-butanoic acid 2,2,2-trifluoroacetic acid salt] | > 1 µM | > 1 µM | 0.1 to 1 µM
3 | CC(C(=O)O)N1CCc2nc(-c3ccc(OCc4ccc(Cl)cc4)cc3)ncc2C1 (stereo not drawn) [Compound 312, 2-(2-(4-((4-chlorobenzyl)oxy)phenyl)-7,8-dihydropyrido[4,3-d]pyrimidin-6(5H)-yl)propanoic acid] | > 1 µM | > 1 µM | 0.1 to 1 µM
4 | Cc1cc(C)cc(COc2ccc(-c3ncc4c(n3)CCN(CC(C)CC(=O)O)C4)c(F)c2)c1 (stereo not drawn) [Compound 313, 4-[2-[4-[(3,5-dimethylphenyl)methoxy]-2-fluoro-phenyl]-7,8-dihydro-5H-pyrido[4,3-d]pyrimidin-6-yl]-3-methyl-butanoic acid 2,2,2-trifluoroacetic acid salt] | > 1 µM | > 1 µM | 0.1 to 1 µM
5 | Cc1ccc(C(F)(F)F)cc1COc1ccc(-c2ncc3c(n2)CCN(CC(C)CC(=O)O)C3)cc1C (stereo not drawn) [Compound 314, 3-methyl-4-[2-[3-methyl-4-[[2-methyl-5-(trifluoromethyl)phenyl]methoxy]phenyl]-7,8-dihydro-5H-pyrido[4,3-d]pyrimidin-6-yl]butanoic acid 2,2,2-trifluoroacetic acid salt] | > 1 µM | > 1 µM | 0.1 to 1 µM
6 | C[C@H](CCO)CN1CCc2nc(-c3ccc(OCc4ccc(Cl)cc4)cc3)ncc2C1 [Compound 315, (R)-4-(2-(4-((4-chlorobenzyl)oxy)phenyl)-7,8-dihydropyrido[4,3-d]pyrimidin-6(5H)-yl)-3-methylbutan-1-ol] | > 1 µM | > 1 µM | 0.1 to 1 µM
7 | Cc1cc(-c2ncc3c(n2)CCN(CC(C)CC(=O)O)C3)ccc1OCc1c(F)cccc1F (stereo not drawn) [Compound 316, 4-[2-[4-[(2,6-difluorophenyl)methoxy]-3-methyl-phenyl]-7,8-dihydro-5H-pyrido[4,3-d]pyrimidin-6-yl]-3-methyl-butanoic acid 2,2,2-trifluoroacetic acid salt] | > 1 µM | < 1 µM | 0.1 to 1 µM
8 | CC(C(=O)O)N1CCc2nc(-c3ccc(OCc4cccc(Cl)c4)cc3)ncc2C1 (stereo not drawn) [Compound 317, 2-(2-(4-((3-chlorobenzyl)oxy)phenyl)-7,8-dihydropyrido[4,3-d]pyrimidin-6(5H)-yl)propanoic acid] | > 1 µM | > 1 µM | 0.1 to 1 µM
9 | Cc1cc(-c2ncc3c(n2)CCN(C[C@H](C)CC(=O)O)C3)ccc1OCc1ccc(Cl)cc1 [Compound 318, (R)-4-(2-(4-((4-chlorobenzyl)oxy)-3-methylphenyl)-7,8-dihydropyrido[4,3-d]pyrimidin-6(5H)-yl)-3-methylbutanoic acid] | > 1 µM | > 1 µM | 0.1 to 1 µM
10 | Cc1cc(-c2ncc3c(n2)CCN(C[C@H](C)CC(=O)O)C3)ccc1OCc1ccccc1 [Compound 319, (R)-4-(2-(4-(benzyloxy)-3-methylphenyl)-7,8-dihydropyrido[4,3-d]pyrimidin-6(5H)-yl)-3-methylbutanoic acid] | > 1 µM | > 1 µM | 0.1 to 1 µM
11 | Cc1cccc(COc2ccc(-c3ncc4c(n3)CCN(CC(C)CC(=O)O)C4)cc2C)c1 (stereo not drawn) [Compound 320, 3-methyl-4-[2-[3-methyl-4-(m-tolylmethoxy)phenyl]-7,8-dihydro-5H-pyrido[4,3-d]pyrimidin-6-yl]butanoic acid 2,2,2-trifluoroacetic acid salt] | > 1 µM | > 1 µM | 1 to 10 µM
12 | CC(C(=O)O)N1CCc2nc(-c3ccc(OCc4ccccc4)cc3)ncc2C1 (stereo not drawn) [Compound 322, 2-(2-(4-(benzyloxy)phenyl)-7,8-dihydropyrido[4,3-d]pyrimidin-6(5H)-yl)propanoic acid] | > 1 µM | > 1 µM | 1 to 10 µM
13 | CC(CC(=O)O)CN1CCc2nc(-c3ccc(C4CC4c4ccc(Cl)cc4)cc3)ncc2C1 (stereo not drawn) [Compound 323, 4-(2-(4-(2-(4-chlorophenyl)cyclopropyl)phenyl)-7,8-dihydropyrido[4,3-d]pyrimidin-6(5H)-yl)-3-methylbutanoic acid] | > 1 µM | > 1 µM | 1 to 10 µM
14 | CC(CC(=O)O)CN1CCc2nc(-c3ccc(C(F)(F)Cc4cccc(Cl)c4)cc3)ncc2C1 (stereo not drawn) [Compound 328, 4-(2-(4-(2-(3-chlorophenyl)-1,1-difluoroethyl)phenyl)-7,8-dihydropyrido[4,3-d]pyrimidin-6(5H)-yl)-3-methylbutanoic acid] | > 1 µM | > 1 µM | 1 to 10 µM
15 | CC(CC(=O)O)CN1Cc2cnc(-c3ccc(OCc4ccc(Cl)cc4)cc3)nc2CC1(C)C (stereo not drawn) [Compound 329, 4-(2-(4-((4-chlorobenzyl)oxy)phenyl)-7,7-dimethyl-7,8-dihydropyrido[4,3-d]pyrimidin-6(5H)-yl)-3-methylbutanoic acid] | > 1 µM | > 1 µM | 1 to 10 µM
16 | Cc1cc(-c2ncc3c(n2)CCN(CC(C)CC(=O)O)C3)ccc1CCc1cccc(Cl)c1 (stereo not drawn) [Compound 331, 4-(2-(4-(3-chlorophenethyl)-3-methylphenyl)-7,8-dihydropyrido[4,3-d]pyrimidin-6(5H)-yl)-3-methylbutanoic acid] | > 1 µM | < 1 µM | 1 to 10 µM
17 | C[C@H](CC(=O)O)C(=O)N1CCc2nc(-c3ccc(OCc4ccc(Cl)cc4)cc3)ncc2C1 [Compound 332, (R)-4-(2-(4-((4-chlorobenzyl)oxy)phenyl)-7,8-dihydropyrido[4,3-d]pyrimidin-6(5H)-yl)-3-methyl-4-oxobutanoic acid] | > 1 µM | > 1 µM | 1 to 10 µM
18 | CC(CC(=O)O)CN1CCc2nc(C3CC(OCc4ccccc4)C3)ncc2C1 (stereo not drawn) [Compound 333, 4-(2-(3-(benzyloxy)cyclobutyl)-7,8-dihydropyrido[4,3-d]pyrimidin-6(5H)-yl)-3-methylbutanoic acid] | > 1 µM | > 1 µM | 1 to 10 µM
19 | O=C(O)C1(CCN2CCc3nc(-c4ccc(OCc5ccc(Cl)cc5)cc4)ncc3C2)CC1 [Compound 335, 1-(2-(2-(4-((4-chlorobenzyl)oxy)phenyl)-7,8-dihydropyrido[4,3-d]pyrimidin-6(5H)-yl)ethyl)cyclopropanecarboxylic acid] | > 1 µM | > 1 µM | 0.1 to 1 µM
20 | CC(CC(=O)O)CN1CCc2nc(-c3ccc(OCC4CCCCC4)cc3)ncc2C1 (stereo not drawn) [Compound 336, 4-(2-(4-(cyclohexylmethoxy)phenyl)-7,8-dihydropyrido[4,3-d]pyrimidin-6(5H)-yl)-3-methylbutanoic acid] | > 1 µM | < 1 µM | < 0.01 µM
